Where a name gives a salt, the structure may show the parent alone.
How the values were obtained:
Assay type in all cases: in vivo
[1] = tested on: Mais LL (Liberty-Link-Mais, maize tolerant or resistant to glufosinate-ammonium); experiment: Field trial, damage to transgenic maize (tolerance by crop plants); settings: for Mais LL: application 3-leaf stage
Procedure: (§1) Transgenic maize plants with a resistance to one or more herbicides (A) together with typical weed plants were grown in the open on 2×5 m plots under natural field conditions; alternatively, weed infestation occurred naturally when the maize plants were grown.
The damage to, and the development of, all aerial parts of the plants was recorded.
Abbreviations generally used in the tables: • g of a.s./ha=gram of active substance (100% active substance) per hectare • E^A=Total of the herbicidal effects of the individual applications • E^C Colby's expected value (cf. scoring in Table 1) • “Mais LL”=®Liberty-Link-Mais, maize which is tolerant or resistant to glufosinate-ammonium, […]

AGRRE = experiment: Field trial with maize, herbicidal action; settings: application 2-4-leaf stage, scoring 3 weeks after application
Procedure: as §1
(§2) […] The damage to, and the development of, all aerial parts of the plants was recorded. Scoring was done on the basis of a percentage sale (100% action=all plants destroyed; 50% action=50% of the plants and green parts of the plants destroyed; 0% action=no recognizable effect=like control plot. The mean of the score values of in each case 4 plots was calculated.

AMARE = experiment: Field trial with maize, herbicidal action; settings: application 2-4-leaf stage, scoring 3 weeks after application
Procedure: as §1, §2

Cassia obtusifolia = experiment: Field trial with maize, herbicidal action; settings: 400 g of a.s./ha; application 3-leaf stage; scoring 21 days after application
Procedure: as §1, §2

Digitaria sanguinalis = experiment: Field trial with maize, herbicidal action; settings: application 5-6-leaf stage, scoring 11 days after application
Procedure: as §1, §2

Echinochloa crus-galli = experiment: Field trial with maize, herbicidal action
Procedure: as §1, §2

Euphorbia heterophylla = experiment: Field trial with maize, herbicidal action; settings: for Herbicidal action (%) against Euphorbia heterophylla: application 6-leaf stage, scoring 44 days after application; for Herbicidal action (%) against EPHHL: application 4-leaf stage, scoring 6 weeks after application
Procedure: as §1, §2

Fagopyrum esculentum = experiment: Field trial with maize, herbicidal action; settings: for Herbicidal action (%) against Fagopyrum esculentum: application 3- to 4-leaf stage, scoring 24 days after application; for Herbicidal action (%) against Fagopyron esculentum: application 2- to 4-leaf stage, scoring 26 days after application
Procedure: as §1, §2

Galium aparine = experiment: Field trial with maize, herbicidal action; settings: application 3- to 4-leaf stage, scoring 24 days after application
Procedure: as §1, §2

Lolium multiflorum = experiment: Field trial with maize, herbicidal action; settings: application 2- to 4-leaf stage, scoring 26 days after application
Procedure: as §1, §2

Panicum dichotomiflorum = experiment: Field trial with maize, herbicidal action; settings: application 5-6-leaf stage, scoring 11 days after application
Procedure: as §1, §2

Portulaca oleracea = experiment: Field trial with maize, herbicidal action
Procedure: as §1, §2

SETVI = experiment: Field trial with maize, herbicidal action; settings: application 2-4-leaf stage, scoring 3 weeks after application
Procedure: as §1, §2

Avena fatua = experiment: Field trial with maize, herbicidal action; settings: application 2- to 4-leaf stage, scoring 28 days after application
Procedure: as §1
(§3) 2, 4, 6 and 8 weeks after the application, the herbicidal activity of the active substances or active substance mixtures was scored visually with reference to the treated plots in comparison to untreated control plots. The damage to, and the development of, all aerial parts of the plants was recorded. Scoring was done on the basis of a percentage sale (100% action=all plants destroyed; 50% action=50% of the plants and green parts of the plants destroyed; 0% action=no recognizable effect=like control plot. The mean of the score values of in each case 4 plots was calculated.

Brachiaria plantaginea = experiment: Field trial with maize, herbicidal action; settings: application 2-leaf stage, scoring 28 days after application
Procedure: as §1, §3

Commelina benghalensis = experiment: Field trial with maize, herbicidal action; settings: application 3-leaf stage, scoring 42 days after application
Procedure: as §1, §3

Sorghum bicolor = experiment: Field trial with maize, herbicidal action; settings: application 4-leaf stage, scoring 28 days after post-emergence application
Procedure: as §1, §3

SMILES: CP(=O)(O)CCC(N)C(=O)O (stereo not shown) [(A1.2), glufosinate-monoammonium salt]
- Mais LL ([1]; 100 g of a.s./ha, Table 11, head names no quantity): 0
- Damage to Mais LL in % ([1]; 100 g of a.s./ha, application 6-leaf stage): 0%
- Damage to Mais LL in % ([1]; 200 g of a.s./ha, application 2-4-leaf stage): 3%
- Mais LL ([1]; 200 g of a.s./ha, Table 11, head names no quantity): 0
- Mais LL ([1]; 200 g of a.s./ha, Table 14, head names no quantity): 0
- Damage to Mais LL in % ([1]; 200 g of a.s./ha, application 5-6-leaf stage): 2%
- Damage to Mais LL in % ([1]; 200 g of a.s./ha, application 6-leaf stage): 0%
- Damage to Mais LL in % ([1]; 300 g of a.s./ha, application 2-4-leaf stage): 2%
- Mais LL ([1]; 300 g of a.s./ha, Table 11, head names no quantity): 0
- Damage to Mais LL in % ([1]; 300 g of a.s./ha, application 4-leaf stage): 0%
- Damage to Mais LL in % ([1]; 400 g of a.s./ha, application 2-4-leaf stage): 5%
- Mais LL ([1]; 400 g of a.s./ha, Table 14, head names no quantity): 8
- Damage to Mais LL in % ([1]; 400 g of a.s./ha, application 5-6-leaf stage): 4%
- Damage to Mais LL in % ([1]; 400 g of a.s./ha, application 6-leaf stage): 0%
- Damage to Mais LL in % ([1]; 600 g of a.s./ha, application 2-4-leaf stage): 3%
- Mais LL ([1]; 600 g of a.s./ha, Table 11, head names no quantity): 0
- Damage to Mais LL in % ([1]; 600 g of a.s./ha, application 4-leaf stage): 0%
- Damage to Mais LL in % ([1]; 600 g of a.s./ha, application 5-6-leaf stage): 3%
- Damage to Mais LL in % ([1]; 1000 g of a.s./ha, application 2-4-leaf stage): 4%
- Herbicidal action (%) against AGRRE (AGRRE; 200 g of a.s./ha): 0%
- Herbicidal action (%) against AGRRE (AGRRE; 300 g of a.s./ha): 0%
- Herbicidal action (%) against AGRRE (AGRRE; 400 g of a.s./ha): 11%
- Herbicidal action (%) against AGRRE (AGRRE; 600 g of a.s./ha): 15%
- Herbicidal action (%) against AGRRE (AGRRE; 1000 g of a.s./ha): 74%
- Herbicidal action (%) against AMARE (AMARE; 200 g of a.s./ha): 65%
- Herbicidal action (%) against AMARE (AMARE; 300 g of a.s./ha): 84%
- Herbicidal action (%) against AMARE (AMARE; 400 g of a.s./ha): 82%
- Herbicidal action (%) against AMARE (AMARE; 600 g of a.s./ha): 87%
- Herbicidal action (%) against AMARE (AMARE; 1000 g of a.s./ha): 85%
- Herbicidal action (%) against Cassia obtusifolia (Cassia obtusifolia): 60%
- Herbicidal action (%) against Digitaria sanguinalis (Digitaria sanguinalis; 200 g of a.s./ha): 0%
- Herbicidal action (%) against Digitaria sanguinalis (Digitaria sanguinalis; 400 g of a.s./ha): 15%
- Herbicidal action (%) against Digitaria sanguinalis (Digitaria sanguinalis; 600 g of a.s./ha): 30%
- Herbicidal action (%) against Echinochloa crus-galli (Echinochloa crus-galli; 125 g of a.s./ha, application 3- to 4-leaf stage, scoring 42 days after application): 45%
- Herbicidal action (%) against Echinochloa crus-galli (Echinochloa crus-galli; 125 g of a.s./ha, application 3-leaf stage, scoring 28 days after application): 25%
- Herbicidal action (%) against Echinochloa crus-galli (Echinochloa crus-galli; 200 g of a.s./ha, application 3-leaf stage, scoring 21 days after application): 35%
- Herbicidal action (%) against Echinochloa crus-galli (Echinochloa crus-galli; 250 g of a.s./ha, application 3- to 4-leaf stage, scoring 42 days after application): 65%
- Herbicidal action (%) against Echinochloa crus-galli (Echinochloa crus-galli; 250 g of a.s./ha, application 3-leaf stage, scoring 28 days after application): 45%
- Herbicidal action (%) against Echinochloa crus-galli (Echinochloa crus-galli; 400 g of a.s./ha, application 3-leaf stage, scoring 21 days after application): 68%
- Herbicidal action (%) against Echinochloa crus-galli (Echinochloa crus-galli; 500 g of a.s./ha, application 3- to 4-leaf stage, scoring 42 days after application): 78%
- Herbicidal action (%) against Echinochloa crus-galli (Echinochloa crus-galli; 500 g of a.s./ha, application 3-leaf stage, scoring 28 days after application): 74%
- Herbicidal action (%) against Euphorbia heterophylla (Euphorbia heterophylla; 100 g of a.s./ha): 37%
- Herbicidal action (%) against Euphorbia heterophylla (Euphorbia heterophylla; 200 g of a.s./ha): 50%
- Herbicidal action (%) against EPHHL (Euphorbia heterophylla; 300 g of a.s./ha): 45%
- Herbicidal action (%) against Euphorbia heterophylla (Euphorbia heterophylla; 400 g of a.s./ha): 60%
- Herbicidal action (%) against EPHHL (Euphorbia heterophylla; 600 g of a.s./ha): 55%
- Herbicidal action (%) against Fagopyrum esculentum (Fagopyrum esculentum; 125 g of a.s./ha): 10%
- Herbicidal action (%) against Fagopyron esculentum (Fagopyrum esculentum; 200 g of a.s./ha): 10%
- Herbicidal action (%) against Fagopyrum esculentum (Fagopyrum esculentum; 250 g of a.s./ha): 20%
- Herbicidal action (%) against Fagopyron esculentum (Fagopyrum esculentum; 330 g of a.s./ha): 20%
- Herbicidal action (%) against Fagopyron esculentum (Fagopyrum esculentum; 500 g of a.s./ha): 55%
- Herbicidal action (%) against Fagopyrum esculentum (Fagopyrum esculentum; 500 g of a.s./ha): 55%
- Herbicidal action (%) against Galium aparine (Galium aparine; 125 g of a.s./ha): 30%
- Herbicidal action (%) against Galium aparine (Galium aparine; 250 g of a.s./ha): 45%
- Herbicidal action (%) against Galium aparine (Galium aparine; 500 g of a.s./ha): 65%
- Herbicidal action (%) against Lolium multiflorum (Lolium multiflorum; 200 g of a.s./ha): 0%
- Herbicidal action (%) against Lolium multiflorum (Lolium multiflorum; 330 g of a.s./ha): 15%
- Herbicidal action (%) against Lolium multiflorum (Lolium multiflorum; 500 g of a.s./ha): 78%
- Herbicidal action (%) against Panicum dichotomiflorum (Panicum dichotomiflorum; 200 g of a.s./ha): 8%
- Herbicidal action (%) against Panicum dichotomiflorum (Panicum dichotomiflorum; 400 g of a.s./ha): 50%
- Herbicidal action (%) against Panicum dichotomiflorum (Panicum dichotomiflorum; 600 g of a.s./ha): 92%
- Herbicidal action (%) against Portulaca oleracea (Portulaca oleracea; 250 g of a.s./ha, application 6-leaf stage, scoring 26 days after application): 35%
- Herbicidal action (%) against Portulaca oleracea (Portulaca oleracea; 300 g of a.s./ha, application 2- to 4-leaf stage, scoring 28 days after application): 43%
- Herbicidal action (%) against Portulaca oleracea (Portulaca oleracea; 450 g of a.s./ha, application 2- to 4-leaf stage, scoring 28 days after application): 50%
- Herbicidal action (%) against Portulaca oleracea (Portulaca oleracea; 500 g of a.s./ha, application 6-leaf stage, scoring 26 days after application): 60%
- Herbicidal action (%) against SETVI (SETVI; 200 g of a.s./ha): 72%
- Herbicidal action (%) against SETVI (SETVI; 300 g of a.s./ha): 72%
- Herbicidal action (%) against SETVI (SETVI; 400 g of a.s./ha): 69%
- Herbicidal action (%) against SETVI (SETVI; 600 g of a.s./ha): 69%
- Herbicidal action (%) against SETVI (SETVI; 1000 g of a.s./ha): 74%
- Herbicidal action (%) against Avena fatua (Avena fatua; 300 g of a.s./ha): 48%
- Herbicidal action (%) against Avena fatua (Avena fatua; 450 g of a.s./ha): 50%
- Herbicidal action (%) against Brachiaria plantaginea (Brachiaria plantaginea; 150 g of a.s./ha): 5%
- Herbicidal action (%) against Brachiaria plantaginea (Brachiaria plantaginea; 300 g of a.s./ha): 45%
- Herbicidal action (%) against Brachiaria plantaginea (Brachiaria plantaginea; 600 g of a.s./ha): 70%
- Herbicidal action (%) against Commelina benghalensis (Commelina benghalensis; 100 g of a.s./ha): 43%
- Herbicidal action (%) against Commelina benghalensis (Commelina benghalensis; 200 g of a.s./ha): 60.0%
- Herbicidal action (%) against Commelina benghalensis (Commelina benghalensis; 300 g of a.s./ha): 63%
- Herbicidal action (%) against Commelina benghalensis (Commelina benghalensis; 600 g of a.s./ha): 82%
- Herbicidal action (%) against Sorghum bicolor (Sorghum bicolor; 125 g of a.s./ha): 30%
- Herbicidal action (%) against Sorghum bicolor (Sorghum bicolor; 250 g of a.s./ha): 50%
- Herbicidal action (%) against Sorghum bicolor (Sorghum bicolor; 500 g of a.s./ha): 85%

— US8772199B2, “Herbicidal compositions for tolerant or resistant maize crops” (Bayer Intellectual Property GmbH, priority 1998, dated 2014)
